Measurements from patent publication US20230114728A1 (Venatorx Pharmaceuticals, Inc., priority 2019, published 2023).
Converted amounts (≈) assume the structure as drawn. Like-named read-outs stand apart in the source and are kept apart here.

Tests used:
Assay in all cases: Broth microdilution MIC in iron-depleted CAMHB (IDM)
Format in all cases: cell-based
A. baumannii ATCC 17978 = details: Acinetobacter baumannii
Method in brief: (§1)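 Iron-limited medium: CAMHB chelated with Chelex 100, cations restored, pH 7.3. CLSI-based microdilution, 2-8×10^5 CFU/mL inoculum, 37° C for 16-20 h (P. aeruginosa) or 20-24 h (A. baumannii). Endpoint is no visible growth.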

A. baumannii ATCC 19606 = details: Acinetobacter baumannii
Method in brief: as §1

[1] = test system: A. baumannii CDC-0033 producing NDM-1, and OXA-94; details: Acinetobacter baumannii, read-out: Minimum Inhibitory Concentration, CDC-0033
Method in brief: as §1

[2] = test system: A. baumannii CDC-0036 OXA-65, and OXA-24; details: Acinetobacter baumannii, read-out: Minimum Inhibitory Concentration, CDC-0036
Method in brief: as §1

[3] = test system: A. baumannii CDC-0083 producing NDM-1, PER-7, OXA-23, and OXA-69; details: Acinetobacter baumannii, read-out: Minimum Inhibitory Concentration, CDC-0083
Method in brief: as §1

[4] = test system: A. baumannii IL123 (ABΔ3-ARAEcPore); details: Acinetobacter baumannii, read-out: Minimum Inhibitory Concentration, IL-2123
Method in brief: as §1

[5] = test system: P. aeruginosa (ΔmexAB-oprM); details: Pseudomonas aeruginosa, read-out: Minimum Inhibitory Concentration, P. aeruginosa ΔmexAB-OprM
Method in brief: as §1

P. aeruginosa ATCC 27853 = details: Pseudomonas aeruginosa
Method in brief: as §1

P. aeruginosa ATCC 35151 = details: Pseudomonas aeruginosa, ATCC35151; iron-depleted MHB (IDM); hyper-permeable strain; read-out: Minimum Inhibitory Concentration, P. aeruginosa ATCC 35151
Method in brief: as §1

[6] = test system: P. aeruginosa CDC-0054 producing VIM-4, OXA-50, and PAO; details: Pseudomonas aeruginosa, read-out: Minimum Inhibitory Concentration, P. aeruginosa CDC-0054
Method in brief: as §1

[7] = test system: P. aeruginosa CDC-0090 producing KPC-5, OXA-50, and PAO; details: Pseudomonas aeruginosa, read-out: Minimum Inhibitory Concentration, P. aeruginosa CDC-0090
Method in brief: as §1

[8] = test system: P. aeruginosa CDC-0095 producing OXA-50, and PAO; details: Pseudomonas aeruginosa, read-out: Minimum Inhibitory Concentration, P. aeruginosa CDC-0095
Method in brief: as §1

[9] = test system: A. baumannii CDC-0045 producing TEM-1D, OXA-23, and OXA-69; details: Acinetobacter baumannii, read-out: Minimum Inhibitory Concentration, CDC-0045
P. aeruginosa CDC-0110 = details: Pseudomonas aeruginosa, CDC0110, read-out: Minimum Inhibitory Concentration, P. aeruginosa CDC-0110
Method in brief: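 MIC is the lowest well showing no visible growth after 16-20 h at 37 °C, starting from 2-8×10^5 CFU/mL in 2-fold serial compound dilutions. Medium: cation-adjusted Mueller Hinton broth iron-depleted with Chelex 100, supplemented back with Ca, Mg and Zn, pH 7.3; CLSI protocol.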

[10] = ATCC17978, read-out: Minimum Inhibitory Concentration, ATCC 17978
[11] = ATCC19606, read-out: Minimum Inhibitory Concentration, ATCC 19606
[12] = ATCC27853, read-out: Minimum Inhibitory Concentration, P. aeruginosa ATCC 27853

`O=C(O)c1c(F)ccc2c1OB(O)[C@@H](NC(=O)C(NC(=O)N1CCN(CCF)C(=O)C1=O)c1c(F)cc(O)c(O)c1F)C2` (stereo partly drawn) [Example 37, (3R)-3-(2-(2,6-difluoro-3,4-dihydroxyphenyl)-2-(4-(2-fluoroethyl)-2,3-dioxopiperazine-1-carboxamido)acetamido)-7-fluoro-2-hydroxy-3,4-dihydro-2H-benzo[e][1,2]oxaborinine-8-carboxylic acid] showed an MIC (A. baumannii ATCC 17978; [10]) of 0.25 µg/mL (≈ 0.408 µM), an MIC (A. baumannii ATCC 19606; [11]) of 0.25 µg/mL (≈ 0.408 µM) and an MIC [1] of 2 to 4 µg/mL (≈ 3.27 to 6.53 µM). It also gave an MIC [2] of 2 to 4 µg/mL (≈ 3.27 to 6.53 µM), an MIC [3] of 0.5 to 1 µg/mL (≈ 0.817 to 1.63 µM) and an MIC [4] of 2 to 4 µg/mL (≈ 3.27 to 6.53 µM). The MIC [5] was 0.25 µg/mL (≈ 0.408 µM), the MIC (P. aeruginosa ATCC 27853; [12]) was 2 to 4 µg/mL (≈ 3.27 to 6.53 µM) and the MIC (P. aeruginosa ATCC 35151) was 0.25 µg/mL (≈ 0.408 µM). It also gave an MIC [6] of 2 to 4 µg/mL (≈ 3.27 to 6.53 µM), an MIC [7] of 2 to 4 µg/mL (≈ 3.27 to 6.53 µM) and an MIC [8] of 8 to 16 µg/mL (≈ 13.1 to 26.1 µM). For the same molecule, the MIC [9] was 0.5 to 1 µg/mL (≈ 0.817 to 1.63 µM) and the MIC (P. aeruginosa CDC-0110) was 0.5 to 1 µg/mL (≈ 0.817 to 1.63 µM).
Work on `CCN1CCN(C(=O)NC(C(=O)N[C@H]2Cc3ccc(F)c(C(=O)O)c3OB2O)c2cc(F)c(O)c(O)c2Cl)C(=O)C1=O` (stereo partly drawn) [Example 42, (3R)-3-(2-(2-chloro-5-fluoro-3,4-dihydroxyphenyl)-2-(4-ethyl-2,3-dioxopiperazine-1-carboxamido)acetamido)-7-fluoro-2-hydroxy-3,4-dihydro-2H-benzo[e][1,2]oxaborinine-8-carboxylic acid] yielded an MIC (A. baumannii ATCC 17978; [10]) of 0.25 µg/mL (≈ 0.409 µM), an MIC (A. baumannii ATCC 19606; [11]) of 0.25 µg/mL (≈ 0.409 µM) and an MIC [1] of 0.5 to 1 µg/mL (≈ 0.819 to 1.64 µM). The MIC [2] was 0.5 to 1 µg/mL (≈ 0.819 to 1.64 µM), the MIC [3] was 0.25 µg/mL (≈ 0.409 µM) and the MIC [4] was 0.5 to 1 µg/mL (≈ 0.819 to 1.64 µM). The MIC [5] was 0.25 µg/mL (≈ 0.409 µM), the MIC (P. aeruginosa ATCC 27853; [12]) was 0.5 to 1 µg/mL (≈ 0.819 to 1.64 µM) and the MIC (P. aeruginosa ATCC 35151) was 0.25 µg/mL (≈ 0.409 µM). The MIC [6] was 0.5 to 1 µg/mL (≈ 0.819 to 1.64 µM), the MIC [7] was 0.25 µg/mL (≈ 0.409 µM) and the MIC [8] was 0.5 to 1 µg/mL (≈ 0.819 to 1.64 µM). The MIC [9] was 0.25 µg/mL (≈ 0.409 µM) and the MIC (P. aeruginosa CDC-0110) was 0.25 µg/mL (≈ 0.409 µM).
For `NCCCN1CCN(C(=O)N[C@H](C(=O)N[C@H]2Cc3ccc(F)c(C(=O)O)c3OB2O)c2ccc(O)c(O)c2Cl)C(=O)C1=O` (single isomer, unassigned) [Example 28], the MIC (A. baumannii ATCC 17978; ATCC17978, A. baumannii ATCC 17978, iron-depleted MHB (IDM), read-out: Minimum Inhibitory Concentration, ATCC 17978) was 0.5 to 1 µg/mL (≈ 0.804 to 1.61 µM), the MIC (A. baumannii ATCC 19606; ATCC19606, A. baumannii ATCC 19606, iron-depleted MHB (IDM), read-out: Minimum Inhibitory Concentration, ATCC 19606) was 8 to 16 µg/mL (≈ 12.9 to 25.7 µM) and the MIC [1] was 32 to 64 µg/mL (≈ 51.5 to 103 µM). It also gave an MIC [2] of 32 to 64 µg/mL (≈ 51.5 to 103 µM), an MIC [3] of 32 to 64 µg/mL (≈ 51.5 to 103 µM) and an MIC [4] of 32 to 64 µg/mL (≈ 51.5 to 103 µM). It also gave an MIC [5] of 0.5 to 1 µg/mL (≈ 0.804 to 1.61 µM), an MIC (P. aeruginosa ATCC 27853; ATCC27853, iron-depleted MHB (IDM), read-out: Minimum Inhibitory Concentration, P. aeruginosa ATCC 27853) of 2 to 4 µg/mL (≈ 3.22 to 6.43 µM) and an MIC (P. aeruginosa ATCC 35151) of 0.25 µg/mL (≈ 0.402 µM). For the same molecule, the MIC [6] was 2 to 4 µg/mL (≈ 3.22 to 6.43 µM), the MIC [7] was 2 to 4 µg/mL (≈ 3.22 to 6.43 µM) and the MIC [8] was 32 to 64 µg/mL (≈ 51.5 to 103 µM). The MIC [9] was 32 to 64 µg/mL (≈ 51.5 to 103 µM) and the MIC (P. aeruginosa CDC-0110) was 8 to 16 µg/mL (≈ 12.9 to 25.7 µM).
With `O=C(NC(C(=O)N[C@H]1Cc2ccc(F)c(C(=O)O)c2OB1O)c1ncc(O)cc1F)c1ccc(O)c(O)c1Cl` (stereo partly drawn) [Example 8, (3R)-3-(2-(2-chloro-3,4-dihydroxybenzamido)-2-(3-fluoro-5-hydroxypyridin-2-yl)acetamido)-7-fluoro-2-hydroxy-3,4-dihydro-2H-benzo[e][1,2]oxaborinine-8-carboxylic acid] the MIC (A. baumannii ATCC 17978; [10]) was 2 to 4 µg/mL (≈ 3.55 to 7.1 µM), the MIC (A. baumannii ATCC 19606; [11]) was 32 to 64 µg/mL (≈ 56.8 to 114 µM) and the MIC [1] was 32 to 64 µg/mL (≈ 56.8 to 114 µM). It also gave an MIC [2] of 32 to 64 µg/mL (≈ 56.8 to 114 µM), an MIC [3] of 32 to 64 µg/mL (≈ 56.8 to 114 µM) and an MIC [4] of 32 to 64 µg/mL (≈ 56.8 to 114 µM). It also gave an MIC [5] of 2 to 4 µg/mL (≈ 3.55 to 7.1 µM), an MIC (P. aeruginosa ATCC 27853; [12]) of 0.5 to 1 µg/mL (≈ 0.887 to 1.77 µM) and an MIC (P. aeruginosa ATCC 35151) of 0.25 µg/mL (≈ 0.444 µM). It also gave an MIC [6] of 2 to 4 µg/mL (≈ 3.55 to 7.1 µM), an MIC [7] of 0.25 µg/mL (≈ 0.444 µM) and an MIC [8] of 2 to 4 µg/mL (≈ 3.55 to 7.1 µM). For the same molecule, the MIC [9] was 32 to 64 µg/mL (≈ 56.8 to 114 µM) and the MIC (P. aeruginosa CDC-0110) was 0.5 to 1 µg/mL (≈ 0.887 to 1.77 µM).
Work on `NCCCN1CCN(C(=O)N[C@@H](C(=O)N[C@H]2Cc3ccc(F)c(C(=O)O)c3OB2O)c2c(F)cc(O)c(O)c2F)C(=O)C1=O` (single isomer, unassigned) [Example 41] yielded an MIC (A. baumannii ATCC 17978; [10]) of 0.25 µg/mL (≈ 0.401 µM), an MIC (A. baumannii ATCC 19606; [11]) of 0.5 to 1 µg/mL (≈ 0.802 to 1.6 µM) and an MIC [1] of 2 to 4 µg/mL (≈ 3.21 to 6.42 µM). The MIC [2] was 2 to 4 µg/mL (≈ 3.21 to 6.42 µM), the MIC [3] was 0.5 to 1 µg/mL (≈ 0.802 to 1.6 µM) and the MIC [4] was 2 to 4 µg/mL (≈ 3.21 to 6.42 µM). The MIC [5] was 0.25 µg/mL (≈ 0.401 µM), the MIC (P. aeruginosa ATCC 27853; [12]) was 2 to 4 µg/mL (≈ 3.21 to 6.42 µM) and the MIC (P. aeruginosa ATCC 35151) was 0.25 µg/mL (≈ 0.401 µM). The MIC [6] was 2 to 4 µg/mL (≈ 3.21 to 6.42 µM), the MIC [7] was 0.25 µg/mL (≈ 0.401 µM) and the MIC [8] was 2 to 4 µg/mL (≈ 3.21 to 6.42 µM). For the same molecule, the MIC [9] was 0.5 to 1 µg/mL (≈ 0.802 to 1.6 µM) and the MIC (P. aeruginosa CDC-0110) was 2 to 4 µg/mL (≈ 3.21 to 6.42 µM).
